In series [1] the test system is EV71. Description: Western blot of viral VP1 in EV71-infected RD cells. Particulars: for VP1/Tubulin (%): EV71 MOI 1, 6 h, DMSO = 100; for antiviral activity against EV71 infections, rank among SSRIs: 5 or 10 μM, Western blot. A general note: Immunoblotting shows a protein as a band on a membrane.
For series [2], the system named is EV71. The series can be described thus: Immunofluorescence assay (IFA) of anti-EV71 potency. The conditions noted are these: Enterovirus A, EV71 MOI 0.1, 12 h p.i. The format is cell-based, EV71 (strain BrCr).
A short description of series [3]: Cell viability assay (CellTiter 96 AQueous) in RD cells. The conditions noted are these: human.
Series [4] in a line: Cell viability assay (CellTiter 96 AQueous) in HeLa cells. Particulars: human.
The nature of series [5]: Secondary screening cell cytotoxicity. The conditions noted are these: at 10 μM, secondary screening criterion.
Series [6] is described as follows: in vitro. The conditions noted are these: human.
The nature of series [7]: in vitro. Particulars: human. The source holds these as a separate data set.
For series [8] the following is noted: human, 12 h, 10 μM.
Series [9] deals with EV71. Particulars: active in the range of several mM; cited from earlier work.
For series [10], the system named is EV71. The series can be described thus: Virus internalization assay (RT-qPCR). The conditions noted are these: RD cells, 5 or 10 μM, 37 °C 1 h after binding, trypsinized, MOI 5.
On the set-up of series [11]: method as in earlier work. The conditions noted are these: cited from earlier work.
In series [12] the test system is EV71. Description: Low-pH exposure assay (Western blot and plaque assay). The format is cell-based, EV71 (strain BrCr). Particulars: 10 μM; for times more viral titer than the sertraline-treated pH 7.4 control: 12 h.
Series [13] has as its system EV71. The series can be described thus: Virus binding assay (RT-qPCR). Particulars: RD cells, 5 or 10 μM, 0 °C 1 h, MOI 5. (Real-time PCR tracks product formation cycle by cycle.)
Series [14] has as its system EV71. Description: Time-of-addition assay (RT-qPCR of viral RNA). Format: cell-based, EV71 (strain BrCr). The conditions noted are these: RD cells, 10 μM, MOI 0.1, RT-qPCR.
In series [15] the test system is EV71. Description: FRET-based biosensor drug screening (HeLa-G2AwtR cells) for EV71 inhibitors. Format: cell-based, EV71 (strain BrCr). The conditions noted are these: Enterovirus A, read-out: inhibition rate.
Setting [16] is: 5 μM drug, HeLa-G2AwtR cells, EV71 MOI 1, 12 h.

Molecules are shown by their SMILES. Values joined by “and” are separate entries in the source; they are usually repeats but may differ in a detail not shown here. Identical values can stand only once. Like-named read-outs stand apart in the source and are kept apart here.

As for `CN(C)CCCN1c2ccccc2Sc2ccc(Cl)cc21` [CPZ, chlorpromazine], the “VP1/Tubulin (%)” value was determined as 109% in the series on EV71 [1] (5 μM) and 54% with EV71 [1] (10 μM).

As for `CCN(CC)CCCC(C)Nc1ccnc2cc(Cl)ccc12` (stereo not shown) [CQ, chloroquine], the “VP1/Tubulin (%)” value is 52% in the series with EV71 [1] (5 μM) and 15% in the series on EV71 [1] (10 μM).

Turning to `COCCCC/C(=N\OCCN)c1ccc(C(F)(F)F)cc1` [FLX, fluvoxamine], the “VP1/Tubulin (%)” value in the series on EV71 [1] (5 μM) turned out to be 82%; in the series on EV71 [1] (10 μM) it was 77%. Besides, the “antiviral activity against EV71 infections, rank among SSRIs” value in the series with EV71 [1] is recorded as “weakest antiviral activity”.

As for `CCCCCCCCc1ccc(CCC(N)(CO)CO)cc1` [Fingolimod], the IC50 in the series on EV71 [2] (HeLa cells) worked out at 2.94 µM; in the series on EV71 [2] (RD cells), 3.59 µM. The CC50 at 12 h in series [3] is 24.5 µM; in series [4] it was 21.8 µM. The molecule further came in with a cell cytotoxicity in series [5] below 20%.

Regarding `Oc1c(Cl)cc(Cl)c(Cl)c1Cc1c(O)c(Cl)cc(Cl)c1Cl` [Hexachorophene, Hexachlorophene], the cell cytotoxicity in [5] is on record as below 20%.

As for `OC(c1cc(C(F)(F)F)nc2c(C(F)(F)F)cccc12)C1CCCCN1` (stereo not shown) [Mefloquine], the half-inhibitory concentration (IC50) in the series on EV71 [2] (HeLa cells) was 3.25 µM; with EV71 [2] (RD cells), 3.89 µM. In addition, the CC50 at 12 h was determined as 29.8 µM in “in vitro [6]” and 30 µM in “in vitro [7]”. The same molecule displayed a cell cytotoxicity in series [8] below 20%.

Turning to `Cl.N` [NH4Cl], the “antiviral effect compared with sertraline and chloroquine” value with EV71 [9] is given as “much weaker antiviral effect”.

For the molecule `OC(CNCC(O)C1CCc2cc(F)ccc2O1)C1CCc2cc(F)ccc2O1` (stereo not shown) [Nebivolol], the figures for the 50% inhibitory concentration (IC50) in the series with EV71 [2] (HeLa cells) and with EV71 [2] (RD cells) were 4.17 µM and 4.74 µM, respectively. The CC50 at 12 h stood at 32.7 µM in the series “in vitro [6]” and 32.9 µM in the series “in vitro [7]”. In addition, the cell cytotoxicity in [8] is below 20%.

On to `Fc1ccc([C@@H]2CCNC[C@H]2COc2ccc3c(c2)OCO3)cc1` [PAR, paroxetine], for which the results for the “VP1/Tubulin (%)” value in the series on EV71 [1] (5 μM) and in the series on EV71 [1] (10 μM) were 74% and 48%, respectively.

Turning to `CN[C@H]1CC[C@@H](c2ccc(Cl)c(Cl)c2)c2ccccc21` [Sertraline], the “viral RNA levels, virus internalization, versus drug-free control” value with EV71 [10] is “undetectable difference”. Also, the figures for the “VP1/Tubulin (%)” value in the series with EV71 [1] (5 μM) and in the series with EV71 [1] (10 μM) were 58% and 10%, respectively. Besides, the “antiviral activity against EV71 infections, rank among SSRIs” value in the series on EV71 [1] was “strongest inhibitory effect”. Besides, in series [11], the “maximum concentration in human plasma” value is “approximately 200 ng/mL and ~ 654 nM”. Moreover, the “times more viral titer than the sertraline-treated pH 7.4 control” value came to 13.4 times in the series with EV71 [12] (HeLa cells, pH 5 medium 10 min); 4 times in the series on EV71 [12] (HeLa cells, pH 5.5 medium 10 min); 16 times with EV71 [12] (RD cells, pH 5 medium 10 min); 5.7 times with EV71 [12] (RD cells, pH 5.5 medium 10 min). Moreover, the “viral replication at the levels of viral protein after low-pH shocks” value in the series on EV71 [12] (RD and HeLa cells, pH 5.5 and 5, 6 h p.i., Western blot) is given as “markedly rescued”. Further, in series [8], the cell cytotoxicity is reported as below 20%. Further, the “viral RNA levels, virus binding, versus drug-free control” value in the series with EV71 [13] was “undetectable difference”. In addition, the “viral RNA levels, post-entry step” value with EV71 [14] (drug present 2-12 h) was “negligible effect”. For the same molecule, in the series on EV71 [14] (drug present -2 to 2 h), the “viral RNA levels, entry step” value is recorded as “profound reduction”.

On to `COc1cccc2c1C(=O)c1c(O)c3c(c(O)c1C2=O)C[C@@](O)(C(C)=O)C[C@@H]3O[C@H]1C[C@H](N)[C@H](O)[C@H](C)O1` [daunorubicin], for which, in the series with EV71 [15] (EV71, 12 h), the inhibition at 5 µM is above 50%.

With `COc1cccc2c1C(=O)c1c(O)c3c(c(O)c1C2=O)C[C@@](O)(C(=O)CO)C[C@@H]3O[C@H]1C[C@H](N)[C@H](O)[C@H](C)O1` [doxorubicin], in the series on EV71 [15] (setting [16]), the inhibition at 5 µM was above 50%.

`COc1cccc2c1C(=O)c1c(O)c3c(c(O)c1C2=O)C[C@@](O)(C(=O)CO)C[C@@H]3O[C@H]1C[C@H](N)[C@@H](O)[C@H](C)O1` [epirubicin]: the inhibition at 5 µM in the series with EV71 [15] (setting [16]) was above 50%.

`Nc1ccn([C@@H]2O[C@H](CO)[C@@H](O)C2(F)F)c(=O)n1` [gemcitabine]: in the series with EV71 [15] (setting [16]), the inhibition at 5 µM is above 50%.

With `CC(=O)[C@]1(O)Cc2c(O)c3c(c(O)c2[C@@H](O[C@H]2C[C@H](N)[C@H](O)[C@H](C)O2)C1)C(=O)c1ccccc1C3=O` [idarubicin], the inhibition at 5 µM in the series with EV71 [15] (setting [16]) was above 50%.

On to `O=C1c2c(O)ccc(O)c2C(=O)c2c(NCCNCCO)ccc(NCCNCCO)c21` [mitoxantrone], for which the inhibition at 5 µM in the series on EV71 [15] (setting [16]) was above 50%.

As usually defined, the IC50 is the concentration needed to halve the response being measured. The term inhibition denotes the percentage by which the read-out fell short of the control.

These data come from publication PMC8780434 (Viruses, 2022).
